{
  "source": "ChEMBL document CHEMBL1150923",
  "about": "“A new cacospongionolide inhibitor of human secretory phospholipase A2 from the Tyrrhenian sponge Fasciospongia cavernosa and absolute configuration of cacospongionolides” (J Nat Prod, 1998)",
  "key": {"[1]": {"assay": "Inhibition of pig pancreatic group1 sPLA2 at 10 uM by liquid scintillation counting", "set-up": "species or system Sus scrofa"}, "[2]": {"target": "T1, Phospholipase A2, membrane associated (Homo sapiens, UniProt P14555)", "T1 sequence (P14555 whole entry)": "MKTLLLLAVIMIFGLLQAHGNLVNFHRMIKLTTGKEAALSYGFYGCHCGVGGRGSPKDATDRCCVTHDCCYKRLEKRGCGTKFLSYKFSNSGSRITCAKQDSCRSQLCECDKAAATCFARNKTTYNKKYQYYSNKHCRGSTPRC", "assay": "Inhibition of human synovial group2 sPLA2 by liquid scintillation counting"}, "[3]": {"target": "T2, Phospholipase A2, membrane associated (Rattus norvegicus, UniProt P14423)", "T2 sequence (P14423 whole entry)": "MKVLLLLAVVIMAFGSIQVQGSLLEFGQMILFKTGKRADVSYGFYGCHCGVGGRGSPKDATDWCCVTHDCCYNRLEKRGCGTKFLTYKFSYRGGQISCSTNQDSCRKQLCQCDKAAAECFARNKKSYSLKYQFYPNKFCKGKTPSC", "assay": "Inhibition of rat air pouch group2 sPLA2 by liquid scintillation counting"}, "Phospholipase A2": {"target": "T3, Phospholipase A2 (Apis mellifera, UniProt P00630)", "T3 sequence (P00630 whole entry)": "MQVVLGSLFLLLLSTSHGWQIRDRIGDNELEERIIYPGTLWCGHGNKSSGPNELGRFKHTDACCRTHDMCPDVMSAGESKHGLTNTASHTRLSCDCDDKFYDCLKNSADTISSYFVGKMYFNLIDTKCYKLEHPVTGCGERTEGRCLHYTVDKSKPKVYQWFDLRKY", "assay": "Inhibition of bee venom group3 sPLA2 by liquid scintillation counting"}, "[4]": {"assay": "Cytotoxicity against human neutrophils by MTT assay", "assay_type": "cell-based", "settings": "neutrophil; call rule not given here"}, "[5]": {"assay": "Toxicity in Artemia salina", "assay_type": "organism-based", "settings": "in vivo"}, "[6]": {"assay": "Toxicity in Gambusia affinis", "assay_type": "organism-based", "settings": "in vivo"}, "[7]": {"assay": "Inhibition of pig pancreatic group1 sPLA2 by liquid scintillation counting", "set-up": "species or system Sus scrofa"}},
  "data": [
    {"smiles": "CC1=CCC[C@@H]2[C@@](C)(CCC3=CC[C@H](C4=CC(=O)O[C@H]4O)OC3)[C@@H](C)CC[C@@]12C", "note": "[CACOSPONGIONOLIDE E]", "values": [
      {"measurement": "IC50", "setting": "[1]", "value": 5.3, "unit": "µM"},
      {"measurement": "IC50", "setting": "[2]", "value": 1.4, "unit": "µM"},
      {"measurement": "IC50", "setting": "[3]", "value": 7.8, "unit": "µM"},
      {"measurement": "IC50", "setting": "Phospholipase A2", "value": 2800, "unit": "nM"},
      {"measurement": "Activity", "setting": "[4]", "value": "Not Active"},
      {"measurement": "LC50", "setting": "[5]", "value": 1.29, "unit": "µg/mL"},
      {"measurement": "LC50", "setting": "[6]", "value": 1.01, "unit": "µg/mL"}
    ]},
    {"smiles": "C=C1CCC[C@H]2[C@](C)(CCC3=CCC(C4=CC(=O)OC4O)OC3)[C@H](C)CC[C@]12C", "note": "(stereo partly drawn) [CACOSPONGIONOLIDE B]", "values": [
      {"measurement": "IC50", "setting": "[1]", "value": 64.2, "unit": "µM"},
      {"measurement": "IC50", "setting": "[7]", "value": 4, "unit": "µM"},
      {"measurement": "IC50", "setting": "[2]", "value": 4.3, "unit": "µM"},
      {"measurement": "Activity", "setting": "[4]", "value": "Not Active"}
    ]},
    {"smiles": "C[C@H]1CC[C@@]23C[C@]2(C)CCC[C@@H]3[C@@]1(C)CCC1=CC[C@H](C2=CC(=O)O[C@H]2O)OC1", "note": "[CACOSPONGIONOLIDE]", "values": [
      {"measurement": "IC50", "setting": "[1]", "value": 14.4, "unit": "µM"},
      {"measurement": "IC50", "setting": "[2]", "value": 3, "unit": "µM"},
      {"measurement": "IC50", "setting": "Phospholipase A2", "value": 2300, "unit": "nM"},
      {"measurement": "Activity", "setting": "[4]", "value": "Not Active"}
    ]},
    {"smiles": "CC1=C(CC/C(C)=C/CCC2=CC[C@H](C3=CC(=O)O[C@H]3O)O[C@H]2O)C(C)(C)CCC1", "note": "[MANOALIDE]", "values": [
      {"measurement": "IC50", "setting": "[1]", "value": 32.3, "unit": "µM"},
      {"measurement": "IC50", "setting": "[2]", "value": 3.9, "unit": "µM"},
      {"measurement": "Activity", "setting": "[4]", "value": "Not Active"}
    ]}
  ]
}
